Here are results for 23 compounds from patent publication US8633204B2 (Pfizer Inc., priority 2006, dated 2014).

In one assay the target is PI3-Kα (Mus musculus (Mouse), UniProt P42337). Description: PI3-Kα Biochemical Assay (fluorescence polarization kinase assay). As to the method:
Compounds of the present invention were evaluated for potency against PI3-Kα using an in vitro kinase assay. PI3-Kα activity is measured in vitro by determining the level of phosphorylation of the substrate PI(4,5)P2. The formation of product PI(3,4,5)P3 is monitored by binding to the Grip1 PH domain in a ligand displacement fluorescence polarization (FP) assay, in which the TAMRA-labeled PI(3,4,5)P3 complexed with Grip1 PH domain is displaced by PI(3,4,5)P3 formed in the PI3-Kα reaction resulting in a decrease in FP signal. Mouse PI3-Kα P110 and P85 subunits were co-expressed in insect cells and co-purified to homogeneity. PI(4,5)P2 were obtained from Cayman. TAMRA-labeled PI(3,4,5)P3 were from Echelon, Grip1 PH domain from Dundee and other reagents were from Sigma.
All assays were performed in a Corning solid black 96-well half area plate using LJL Analyst (Molecular Devices) at room temperature. The assay buffer contained 50 mM HEPES, pH 7.4, 150 mM NaCl, 5 mM DTT, and 0.05% CHAPS. Dry powder PI(4,5)P2 was dissolved in 50 mM TRIS, pH 8 to make 1 mM stock solution. The PI(4,5)P2 stock solution was then diluted in the assay buffer to 60 μM, and sonicated for 30 sec before use. To the assay plate, the following reagents were added in sequence: 10 μL of 60 μM PI(4,5)P2, 5 μL of 4 nM PI3-Kα, 2 μL of compound in 25% DMSO, 3 μL of mixture containing 200 μM ATP and 33 mM MgCl2. The final volume for the reaction was 20 μL. The reaction mixture was incubated at room temperature for 35 min. The reaction was then stopped by 20 μL of 20 mM EDTA. […] The FP signal was allowed to develop for 40 min before reading on a LJL analyst at excitation 535 nm and emission 580 nm.
The percentage of inhibition was calculated based on the following equation % inhibition=[1−(FPcompound−FPmax)/(FPmin−FPmax)]×100, where FPcompound is the FP reading at a given compound concentration, FPmin is the FP signal of the PI3-Kα reaction in the absence of a compound, and FPmax is the background FP signal in the absence of PI3-Kα and a compound. The IC50 was determined by fitting the FP signal vs. compound concentration to a sigmoidal dose response equation using GraphPad Prism curve fitting program.
A general note: In fluorescence polarisation assays a small probe gives low polarisation when free and higher when bound to something large.

For assay [1], the system named is PI3-K in BT20 cells (phosphorylation of AKT at serine 473). Put plainly: PI3-Kα Cellular Assay (AKT Ser473 phosphorylation ELISA in BT20 cells). It is filed as cell-based, human. The settings on record: Homo sapiens, BT-20, pAKT Ser473 ELISA, 1 hour incubation. As to the method: Compounds of the present invention were evaluated for potency against PI3-K using a cellular assay as follows.
Healthy growing human breast cancer cells BT20 (PI3K mutated) are used for the assay. BT20 cells are grown in 10% FBS+GLN (1:100)+PS (1:100)+1 mM Sodium Pyruvate+0.1 mM Sodium Bicarbonate+Non-Essential Amino Acids Solution (1:100) MEM medium (MEM+all). […] The cells are re-suspended in 10% FBS MEM all and are centrifuged down at 1400 rpm for 5 minutes. The cells are re-suspended in 0.5% FBS MEM all and are counted on a cell counter. The cells are seeded at 25,000 cells/well in volume of 100 μL/well in 0.5% FBS MEM all in a 96 well flat-bottom plate. The negative control wells receive only 100 μL of 0.5% FBS MEM all medium without cells. The plate is incubated overnight in a cell culture incubator with 5% CO2 at 37° C.
On day 2, testing compounds are prepared in 0.5% FBS MEM all medium and serially diluted at 1:3 for 11 test concentrations. Each concentration of the compounds is tested in duplicate. The compound solutions are added at 25 μL/well to the corresponded wells in cell plate, and 25 μL/well of the vehicle (0.5% DMSO in 0.5% FBS MEM all) is added to the negative control wells (no cells) and the positive control wells (cells without compounds). The plate is incubated for 1 hour in a cell culture incubator with 5% CO2 at 37° C. After 1 hour of incubation, the medium is removed, 100 μL/well of cell lysis buffer is added into the cell plate, and shake for 15 minutes at room temperature. […] After 1 hour, empty the contents of the wells, wash the plate 4 times with the wash buffer, and add 100 μL of TMB substrate solution (catalog #T0440, Sigma) into each well, and incubate with gentle shaking at room temperature for […]. After 15 minutes of color development, add 100 μL of stop solution (1N hydrochloric acid) to each well, and read the plate at 450 nm on ELISA plate reader.
(In an ELISA, binding on a coated surface is turned into a signal by an enzyme label.)

pIC50: −log10 of the molar value.

PI3-Kα, sequence (P42337 whole entry, the tested form may be a part): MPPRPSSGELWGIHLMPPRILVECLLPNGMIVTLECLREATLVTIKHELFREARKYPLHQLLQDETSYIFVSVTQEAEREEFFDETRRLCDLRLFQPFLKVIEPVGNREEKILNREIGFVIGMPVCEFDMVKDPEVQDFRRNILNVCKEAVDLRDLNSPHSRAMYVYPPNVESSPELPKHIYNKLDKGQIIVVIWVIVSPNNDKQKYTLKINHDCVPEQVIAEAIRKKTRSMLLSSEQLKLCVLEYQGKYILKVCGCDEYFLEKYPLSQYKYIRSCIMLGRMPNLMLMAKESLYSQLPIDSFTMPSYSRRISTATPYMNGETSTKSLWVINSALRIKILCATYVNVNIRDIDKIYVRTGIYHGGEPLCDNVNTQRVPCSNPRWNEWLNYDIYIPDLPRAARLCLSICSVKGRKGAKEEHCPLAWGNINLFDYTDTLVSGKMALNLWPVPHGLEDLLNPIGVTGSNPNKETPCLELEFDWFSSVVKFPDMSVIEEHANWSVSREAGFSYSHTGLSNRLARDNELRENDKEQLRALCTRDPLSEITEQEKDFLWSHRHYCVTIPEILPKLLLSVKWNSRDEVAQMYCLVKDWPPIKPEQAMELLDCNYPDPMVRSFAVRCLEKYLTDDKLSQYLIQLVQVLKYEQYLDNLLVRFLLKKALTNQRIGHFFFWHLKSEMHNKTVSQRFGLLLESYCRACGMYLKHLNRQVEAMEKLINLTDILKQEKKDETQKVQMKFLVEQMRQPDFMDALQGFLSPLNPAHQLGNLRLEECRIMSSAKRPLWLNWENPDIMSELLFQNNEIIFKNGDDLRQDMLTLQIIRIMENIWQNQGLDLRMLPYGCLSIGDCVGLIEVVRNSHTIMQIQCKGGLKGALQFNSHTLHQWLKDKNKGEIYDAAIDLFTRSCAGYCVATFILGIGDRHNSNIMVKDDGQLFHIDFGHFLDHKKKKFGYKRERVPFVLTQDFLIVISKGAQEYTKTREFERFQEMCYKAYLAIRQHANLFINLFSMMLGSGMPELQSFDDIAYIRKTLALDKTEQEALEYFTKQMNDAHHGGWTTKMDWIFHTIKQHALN
PI3-Kα, sequence (P26450 whole entry partner, the tested form may be a part): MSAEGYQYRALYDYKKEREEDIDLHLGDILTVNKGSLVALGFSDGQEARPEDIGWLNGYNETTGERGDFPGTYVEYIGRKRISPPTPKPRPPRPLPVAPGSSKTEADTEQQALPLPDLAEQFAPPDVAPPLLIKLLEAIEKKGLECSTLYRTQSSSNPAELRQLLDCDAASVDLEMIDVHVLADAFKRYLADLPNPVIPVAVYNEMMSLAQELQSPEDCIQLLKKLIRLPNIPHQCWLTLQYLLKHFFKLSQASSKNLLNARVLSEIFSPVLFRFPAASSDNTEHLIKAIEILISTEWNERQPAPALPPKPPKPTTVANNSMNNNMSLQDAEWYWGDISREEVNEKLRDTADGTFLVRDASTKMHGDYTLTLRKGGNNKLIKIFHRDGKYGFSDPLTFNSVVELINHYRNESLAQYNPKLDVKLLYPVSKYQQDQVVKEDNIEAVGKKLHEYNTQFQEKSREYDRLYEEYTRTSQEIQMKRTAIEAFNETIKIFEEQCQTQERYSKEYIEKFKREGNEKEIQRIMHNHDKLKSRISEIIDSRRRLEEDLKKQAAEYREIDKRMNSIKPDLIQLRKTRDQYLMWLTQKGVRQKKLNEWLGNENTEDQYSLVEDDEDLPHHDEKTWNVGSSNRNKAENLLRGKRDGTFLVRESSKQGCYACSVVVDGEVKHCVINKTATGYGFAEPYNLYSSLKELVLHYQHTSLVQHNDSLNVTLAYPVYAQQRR

What is called pIC50 is the negative decadic logarithm of the IC50, by convention in mol/L. As for `CNc1nc(C)c2cc(-c3cnc(N)c(OC[C@H](C)N)n3)c(=O)n(C3CCCC3)c2n1` [Compound 103, 6-(5-amino-6-{[(2S)-2-aminopropyl]oxy}pyrazin-2-yl)-8-cyclopentyl-4-methyl-2-(methylamino)pyrido[2,3-d]pyrimidin-7(8H)-one], the pIC50 against PI3-Kα is 6.40; in assay [1], 5.63. As to `Cc1nc(N)nc2c1cc(-c1cn[nH]c1)c(=O)n2N1CCCC1` [Compound 193, 2-Amino-4-methyl-6-(1H-pyrazol-4-yl)-8-(pyrrolidin-1-yl)pyrido[2,3-d]pyrimidin-7(8H)-one], the pIC50 against PI3-Kα was 7.55. Still for that read-out and setting: next, `COc1ccc(-c2cc3c(C)nc(N)nc3n(N3CCCC3)c2=O)cn1` [Compound 195, 2-amino-6-(6-methoxypyridin-3-yl)-4-methyl-8-(pyrrolidin-1-yl)pyrido[2,3-d]pyrimidin-7(8H)-one]: 7.64. Still for that read-out and setting: next, `Cc1nc(N)nc2c1cc(-c1cn[nH]c1)c(=O)n2C1CC1` [Compound 211, 2-amino-8-cyclopropyl-4-methyl-6-(1H-pyrazol-4-yl)pyrido[2,3-d]pyrimidin-7(8H)-one]: 7.11; `COc1ccc(-c2cc3c(C)nc(N)nc3n(C3CC3)c2=O)cn1` [Compound 212, 2-amino-8-cyclopropyl-6-(6-methoxypyridin-3-yl)-4-methylpyrido[2,3-d]pyrimidin-7(8H)-one]: 7.25. The compound `COc1ncc(-c2cc3c(C)nc(N)nc3n(C3CCCC3)c2=O)cc1F` [Compound 254, 2-amino-8-cyclopentyl-6-(5-fluoro-6-methoxypyridin-3-yl)-4-methylpyrido[23-d]pyrimidin-7(8H)-one] showed a pIC50 in assay [1] of 8.10. `Cc1nc(N)nc2c1cc(-c1ccc3c(c1)OCCO3)c(=O)n2[C@H]1CC[C@H](O)CC1` [Compound 261, 2-amino-6-(2,3-dihydro-1,4-benzodioxin-6-yl)-8-(trans-4-hydroxycylohexyl)-4-methylpyrido[23-d]pyrimidin-7(8H)-one] gave a pIC50 in assay [1] of 7.46. Compared with the last compound, the pIC50 is 0.64 log units lower.

Regarding `COc1ncc(-c2cc3c(C)nc(N)nc3n(C3CCOCC3)c2=O)cc1F` [Compound 265, 2-amino-6-(5-fluoro-6-methoxypyridin-3-yl)-4-methyl-8-(tetrahydro-2H-pyran-4-yl)pyrido[2,3-d]pyrimidin-7(8H)-one], on PI3-Kα, the pIC50 was 8.84. Turning to `COc1ncc(-c2cc3c(C)nc(N)nc3n([C@H]3CC[C@@H](O)CC3)c2=O)cn1` [Compound 272, 2-amino-8-(cis-4-hydroxycyclohexyl)-6-(2-methoxypyrimidin-5-yl)-4-methylpyrido[2,3-d]pyrimidin-7(8H)-one], in assay [1], the pIC50 is 7.36. Compound `COc1ncc(-c2cc3c(C)nc(N)nc3n([C@H]3CC[C@H](O)CC3)c2=O)cn1` [Compound 273, 2-amino-8-(trans-4-hydroxycyclohexyl)-6-(2-methoxypyrimidin-5-yl)-4-methylpyrido[2,3-d]pyrimidin-7(8H)-one] gave a pIC50 in assay [1] of 7.60. Still for that read-out and setting: next, `CNc1nc(C)c2cc(-c3ccc(OC)nc3)c(=O)n([C@H]3CC[C@H](O)CC3)c2n1` [Compound 274, 8-(trans-4-hydroxycyclohexyl)-6-(6-methoxypyridin-3-yl)-4-methyl-2-(methylamino)pyrido[2,3-d]pyrimidin-7(8H)-one]: 8.11. As to `CCn1nccc1NC(=O)c1cc2c(C)nc(N)nc2n(C(C)C)c1=O` [Compound 280, 2-amino-N-(1-ethyl-1H-pyrazol-5-yl)-8-isopropyl-4-methyl-7-oxo-7,8-dihydropyrido[2,3-d]pyrimidine-6-carboxamide], the pIC50 against PI3-Kα was 8.41. In turn, `CNc1nc(C)c2cc(C(=O)Nc3ccccn3)c(=O)n(C3CCCC3)c2n1` [Compound 282, 8-cyclopentyl-4-methyl-2-(methylamino)-7-oxo-N-pyridin-2-yl-7,8-dihydropyrido[2,3-d]pyrimidine-6-carboxamide] gave a pIC50 in assay [1] of 6.58. In assay [1], `COc1ccc(-c2cc3c(C)nc(N)nc3n([C@H]3CC[C@@H](OCCO)CC3)c2=O)cn1` [Compound 285, 2-Amino-8-(cis-4-(2-hydroxyethoxy)cyclohexyl)-6-(6-methoxypyridin-3-yl)-4-methylpyrido[2,3-d]pyrimidin-7(8H)-one] had a pIC50 of 7.74. Same read-out and setting: under `COc1ccc(-c2cc3c(C)nc(N)nc3n([C@H]3CC[C@H](OCCO)CC3)c2=O)cn1` [Compound 286, 2-amino-8-[trans-4-(2-hydroxyethoxy)cyclohexyl]-6-(6-methoxypyridin-3-yl)-4-methylpyrido[2,3-d]pyrimidin-7(8H)-one] stands 7.88; under `Cc1nc(N)nc2c1cc(-c1cnc3ccccc3c1)c(=O)n2[C@H]1CC[C@H](OCCO)CC1` [Compound 289, 2-amino-8-(trans-4-(2-hydroxyethoxy)cyclohexyl]-4-methyl-6-quinolin-3-ylpyrido[2,3-d]pyrimidin-7(8H)-one], 7.53. For `COc1ncc(-c2cc3c(C)nc(N)nc3n([C@H]3CC[C@@H](OCCO)CC3)c2=O)cc1F` [Compound 294, 2-amino-6-(5-fluoro-6-methoxypyridin-3-yl)-8-[cis-4-(2-hydroxyethoxy)cyclohexyl]-4-methylpyrido[2,3-d]pyrimidin-7(8H)-one], the pIC50 at PI3-Kα was 8.59. Regarding `Cc1nc(N)nc2c1cc(-c1cnc3ccccc3c1)c(=O)n2[C@H]1CC[C@@H](OCCO)CC1` [Compound 295, 2-amino-8-[cis-4-(2-hydroxyethoxy)cyclohexyl]-4-methyl-6-quinolin-3-ylpyrido[2,3-d]pyrimidin-7(8H)-one], in assay [1], the negative-log IC50 (pIC50) was 7.02. The same measure, in the same setting: under `Cc1nc(N)nc2c1cc(-c1ccn[nH]1)c(=O)n2[C@H]1CC[C@H](OCCO)CC1` [Compound 301, 2-amino-8-[trans-4-(2-hydroxyethoxy)cyclohexyl]-4-methyl-6-(1H-pyrazol-3-yl)pyrido[2,3-d]pyrimidin-7(8H)-one] stands 6.86; under `COc1ccc(-c2cc3c(C)nc(N)nc3n([C@H]3CC[C@@H](OCC(N)=O)CC3)c2=O)cn1` [Compound 303], 7.69. As to `COc1ncc(-c2cc3c(C)nc(N)nc3n([C@H]3CC[C@@H](OCC(N)=O)CC3)c2=O)cn1` [Compound 307, 2-({cis-4-(2-amino-6-(2-methoxypyrimidin-5-yl)-4-methyl-7-oxopyrido[2,3-d]pyrimidin-8(7H)-yl]cyclohexyl}oxy)acetamide], the pIC50 in assay [1] is 7.08. Still for that read-out and setting: next, `COc1ccc(-c2cc3c(C)nc(N)nc3n([C@H]3CC[C@H](OCC(N)=O)CC3)c2=O)cn1` [Compound 309, 2-({trans-4-[2-amino-6-(6-methoxypyridin-3-yl)-4-methyl-7-oxopyrido[2,3-d]pyrimidin-8(7H)-yl]cyclohexyl}oxy)acetamide]: 7.71; `COc1ncc(-c2cc3c(C)nc(N)nc3n([C@H]3CC[C@H](OCC(N)=O)CC3)c2=O)cn1` [Compound 311, 2-({trans-4-[2-amino-6-(2-methoxypyrimidin-5-yl)-4-methyl-7-oxopyrido[2,3-d]pyrimidin-8(7H)-yl]cyclohexyl}oxy)acetamide]: 7.28.
